Where only a bound is given, the exact number is not on record here.

This assay has as its system ATF4 luciferase reporter in HEK293T cells. Put plainly: ATF4-Luc assay (in vitro model of VWMD). The class given is cell-based, human. The conditions noted are these: Homo sapiens, HEK-293T, 7 h, HEK293T cells carrying the ATF4 luciferase reporter, 1 μg/mL tunicamycin, One Glo luminescence. In short, it runs like this:
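Tunicamycin (1 μg/mL) stress with co-added compound for 7 hours in HEK293T cells stably carrying an ATF4 5′-UTR–luciferase reporter. EC50 values come from the luminescent signal (One Glo).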
Background: A reporter such as luciferase makes a cellular process visible.
`O=C(NC12CC(c3cnc([C@H]4C[C@@H](OC(F)(F)F)C4)o3)(C1)C2)[C@H]1C[C@@H](O)c2cc(Cl)ccc2O1` [Compound 410, (2R,4R)-6-chloro-4-hydroxy-N-(3-{2-[cis-3-(trifluoromethoxy)cyclobutyl]-1,3-oxazol-5-yl}bicyclo[1.1.1]pentan-1-yl)-3,4-dihydro-2H-1-benzopyran-2-carboxamide]: the EC50 was under 10 nM.

On to `CN(CCOC(F)(F)F)c1cnn(C23CC(NC(=O)[C@H]4C[C@@H](O)c5cc(Cl)ccc5O4)(C2)C3)c1` [Compound 411, (2R,4R)-6-chloro-4-hydroxy-N-[3-(4-{methyl[2-(trifluoromethoxy)ethyl]amino}-1H-pyrazol-1-yl)bicyclo[1.1.1]pentan-1-yl]-3,4-dihydro-2H-1-benzopyran-2-carboxamide], for which the 50% effective concentration (EC50) lay within 10 to 50 nM.

In the case of `O=C(NC12CC(n3cc(OCCOC(F)(F)F)cn3)(C1)C2)[C@H]1C[C@@H](O)c2cc(Cl)ccc2O1` [Compound 412, (2R,4R)-6-chloro-4-hydroxy-N-(3-{4-[2-(trifluoromethoxy)ethoxy]-1H-pyrazol-1-yl}bicyclo[1.1.1]pentan-1-yl)-3,4-dihydro-2H-1-benzopyran-2-carboxamide], the concentration giving a half-maximal response (EC50) was under 10 nM.

For the compound `O=C(NC12CC(n3cc(OCCOC(F)(F)F)cn3)(C1)C2)[C@H]1C[C@@H](O)c2cc(Cl)c(F)cc2O1` [Compound 413, (2R,4R)-6-chloro-7-fluoro-4-hydroxy-N-(3-{4-[2-(trifluoromethoxy)ethoxy]-1H-pyrazol-1-yl}bicyclo[1.1.1]pentan-1-yl)-3,4-dihydro-2H-1-benzopyran-2-carboxamide], the EC50 is under 10 nM.

Consider `O=C(NC12CC(c3cnc(OCCOC(F)(F)F)o3)(C1)C2)[C@H]1C[C@@H](O)c2cc(Cl)ccc2O1` [Compound 414, (2R,4R)-6-chloro-4-hydroxy-N-(3-{2-[2-(trifluoromethoxy)ethoxy]-1,3-oxazol-5-yl}bicyclo[1.1.1]pentan-1-yl)-3,4-dihydro-2H-1-benzopyran-2-carboxamide], for which the concentration giving a half-maximal response (EC50) was under 10 nM.

Consider `O=C(NC12CC(c3cnc(OCCCOC(F)(F)F)o3)(C1)C2)[C@H]1C[C@@H](O)c2cc(Cl)ccc2O1` [Compound 415, (2R,4R)-6-chloro-4-hydroxy-N-(3-{2-[3-(trifluoromethoxy)propoxy]-1,3-oxazol-5-yl}bicyclo[1.1.1]pentan-1-yl)-3,4-dihydro-2H-1-benzopyran-2-carboxamide], for which the 50% effective concentration (EC50) is under 10 nM.

As to `O=C(NC12CC(c3cnc(OCCOC(F)(F)F)o3)(C1)C2)[C@H]1C[C@@H](O)c2cc(Cl)c(F)cc2O1` [Compound 416, (2R,4R)-6-chloro-7-fluoro-4-hydroxy-N-(3-{2-[2-(trifluoromethoxy)ethoxy]-1,3-oxazol-5-yl}bicyclo[1.1.1]pentan-1-yl)-3,4-dihydro-2H-1-benzopyran-2-carboxamide], the 50% effective concentration (EC50) is under 10 nM.

`O=C(NC12CC(c3cnc(OCCCOC(F)(F)F)o3)(C1)C2)[C@H]1C[C@@H](O)c2cc(Cl)c(F)cc2O1` [Compound 417, (2R,4R)-6-chloro-7-fluoro-4-hydroxy-N-(3-{2-[3-(trifluoromethoxy)propoxy]-1,3-oxazol-5-yl}bicyclo[1.1.1]pentan-1-yl)-3,4-dihydro-2H-1-benzopyran-2-carboxamide]: the EC50 was under 10 nM.

`O=C(NC12CC(n3cc(OCCOC(F)(F)F)cn3)(C1)C2)[C@H]1C[C@@H](O)c2cc(F)ccc2O1` [Compound 418, (2R,4R)-6-fluoro-4-hydroxy-N-(3-{4-[2-(trifluoromethoxy)ethoxy]-1H-pyrazol-1-yl}bicyclo[1.1.1]pentan-1-yl)-3,4-dihydro-2H-1-benzopyran-2-carboxamide]: the EC50 fell in the range of 10 to 50 nM.

In the case of `O=C(N[C@H]1CC[C@H](n2cc(OCCOC(F)(F)F)cn2)CC1)[C@H]1C[C@@H](O)c2cc(Cl)c(F)cc2O1` [Compound 419, (2R,4R)-6-chloro-7-fluoro-4-hydroxy-N-[(1r,4R)-4-{4-[2-(trifluoromethoxy)ethoxy]-1H-pyrazol-1-yl}cyclohexyl]-3,4-dihydro-2H-1-benzopyran-2-carboxamide], the 50% effective concentration (EC50) is under 10 nM.

Turning to `O=C(NC12CC(n3cc(OCCOC(F)F)cn3)(C1)C2)[C@H]1C[C@@H](O)c2cc(Cl)ccc2O1` [Compound 420, (2R,4R)-6-chloro-N-(3-{4-[2-(difluoromethoxy)ethoxy]-1H-pyrazol-1-yl}bicyclo[1.1.1]pentan-1-yl)-4-hydroxy-3,4-dihydro-2H-1-benzopyran-2-carboxamide], the EC50 lay in the range of 10 to 50 nM.

For the compound `O=C(N[C@H]1CC[C@H](n2cc(OCCOC(F)(F)F)cn2)CC1)[C@H]1C[C@@H](O)c2cc(Cl)ccc2O1` [Compound 421, (2R,4R)-6-chloro-4-hydroxy-N-[(1r,4R)-4-{4-[2-(trifluoromethoxy)ethoxy]-1H-pyrazol-1-yl}cyclohexyl]-3,4-dihydro-2H-1-benzopyran-2-carboxamide], the concentration giving a half-maximal response (EC50) is under 10 nM.

`O=C(N[C@H]1CC[C@H](n2cc(OCCCOC(F)(F)F)cn2)CC1)[C@H]1C[C@@H](O)c2cc(Cl)c(F)cc2O1` [Compound 422, (2R,4R)-6-chloro-7-fluoro-4-hydroxy-N-[(1r,4R)-4-{4-[3-(trifluoromethoxy)propoxy]-1H-pyrazol-1-yl}cyclohexyl]-3,4-dihydro-2H-1-benzopyran-2-carboxamide]: the EC50 is under 10 nM.

For the compound `O=C(N[C@H]1CC[C@H](n2cc(OCCCOC(F)(F)F)cn2)CC1)[C@H]1C[C@@H](O)c2cc(Cl)ccc2O1` [Compound 423, (2R,4R)-6-chloro-4-hydroxy-N-[(1r,4R)-4-{4-[3-(trifluoromethoxy)propoxy]-1H-pyrazol-1-yl}cyclohexyl]-3,4-dihydro-2H-1-benzopyran-2-carboxamide], the EC50 is under 10 nM.

As for `O=C(NC12CC(n3cc(OCCOC(F)(F)F)cn3)(C1)C2)[C@H]1C[C@@H](O)c2cc(C(F)(F)F)ccc2O1` [Compound 424, (2R,4R)-4-hydroxy-N-(3-{4-[2-(trifluoromethoxy)ethoxy]-1H-pyrazol-1-yl}bicyclo[1.1.1]pentan-1-yl)-6-(trifluoromethyl)-3,4-dihydro-2H-1-benzopyran-2-carboxamide], the EC50 was under 10 nM.

As for `O=C(NC12CC(n3cc(OCCOCC(F)(F)F)cn3)(C1)C2)[C@H]1C[C@@H](O)c2cc(Cl)ccc2O1` [Compound 425, (2R,4R)-6-chloro-4-hydroxy-N-(3-{4-[2-(2,2,2-trifluoroethoxy)ethoxy]-1H-pyrazol-1-yl}bicyclo[1.1.1]pentan-1-yl)-3,4-dihydro-2H-1-benzopyran-2-carboxamide], the EC50 is under 10 nM.

On to `COCCOc1cnn(C23CC(NC(=O)[C@H]4C[C@@H](O)c5cc(Cl)ccc5O4)(C2)C3)c1` [Compound 426, (2R,4R)-6-chloro-4-hydroxy-N-{3-[4-(2-methoxyethoxy)-1H-pyrazol-1-yl]bicyclo[1.1.1]pentan-1-yl}-3,4-dihydro-2H-1-benzopyran-2-carboxamide], for which the EC50 lay in the range of 250 to 500 nM.

In the case of `O=C(NC12CC(c3ccnc(OCCCOC(F)(F)F)c3)(C1)C2)[C@H]1C[C@@H](O)c2cc(Cl)c(F)cc2O1` [Compound 427, (2R,4R)-6-chloro-7-fluoro-4-hydroxy-N-(3-{2-[3-(trifluoromethoxy)propoxy]pyridin-4-yl}bicyclo[1.1.1]pentan-1-yl)-3,4-dihydro-2H-1-benzopyran-2-carboxamide], the half-maximal effective concentration (EC50) was under 10 nM.

With `O=C(NC12CC(c3ccnc(OCCCOC(F)(F)F)c3)(C1)C2)[C@H]1C[C@@H](O)c2cc(Cl)ccc2O1` [Compound 428, (2R,4R)-6-chloro-4-hydroxy-N-(3-{2-[3-(trifluoromethoxy)propoxy]pyridin-4-yl}bicyclo[1.1.1]pentan-1-yl)-3,4-dihydro-2H-1-benzopyran-2-carboxamide], the EC50 is under 10 nM.

On to `O=C(NC12CC(n3cc(OCCOC(F)(F)F)cn3)(C1)C2)[C@H]1C[C@@H](O)c2cc(F)c(F)cc2O1` [Compound 429, (2R,4R)-6,7-difluoro-4-hydroxy-N-(3-{4-[2-(trifluoromethoxy)ethoxy]-1H-pyrazol-1-yl}bicyclo[1.1.1]pentan-1-yl)-3,4-dihydro-2H-1-benzopyran-2-carboxamide], for which the EC50 is under 10 nM.

Regarding `CN(CCCOC(F)(F)F)c1cnn(C23CC(NC(=O)[C@H]4C[C@@H](O)c5cc(Cl)ccc5O4)(C2)C3)c1` [Compound 430, (2R,4R)-6-chloro-4-hydroxy-N-[3-(4-{methyl[3-(trifluoromethoxy)propyl]amino}-1H-pyrazol-1-yl)bicyclo[1.1.1]pentan-1-yl]-3,4-dihydro-2H-1-benzopyran-2-carboxamide], the EC50 lay in the range of 10 to 50 nM.

Consider `O=C(NC12CC(n3cc(OCCCOC(F)(F)F)cn3)(C1)C2)[C@H]1C[C@@H](O)c2cc(Cl)ccc2O1` [Compound 431, (2R,4R)-6-chloro-4-hydroxy-N-(3-{4-[3-(trifluoromethoxy)propoxy]-1H-pyrazol-1-yl)bicyclo[1.1.1]pentan-1-yl)-3,4-dihydro-2H-1-benzopyran-2-carboxamide], for which the 50% effective concentration (EC50) is under 10 nM.

Consider `O=C(NC12CC(n3cc(OCCOC(F)(F)F)cn3)(C1)C2)[C@@H]1C[C@@H](O)c2cc(Cl)c(F)cc2O1` [Compound 432, (2S,4R)-6-chloro-7-fluoro-4-hydroxy-N-(3-{4-[2-(trifluoromethoxy)ethoxy]-1H-pyrazol-1-yl}bicyclo[1.1.1]pentan-1-yl)-3,4-dihydro-2H-1-benzopyran-2-carboxamide], for which the 50% effective concentration (EC50) is under 10 nM.

For the compound `O=C(NC12CC(n3cc(OCCCOC(F)(F)F)cn3)(C1)C2)[C@H]1C[C@@H](O)c2cc(Cl)c(F)cc2O1` [Compound 433, (2R,4R)-6-chloro-7-fluoro-4-hydroxy-N-(3-{4-[3-(trifluoromethoxy)propoxy]-1H-pyrazol-1-yl}bicyclo[1.1.1]pentan-1-yl)-3,4-dihydro-2H-1-benzopyran-2-carboxamide], the EC50 is under 10 nM.

Regarding `O=C(NC12CC(n3cc(OCCOC(F)(F)F)cn3)(C1)C2)[C@@H]1C[C@@H](O)c2cc(Cl)c(Cl)cc2O1` [Compound 434, (2S,4R)-6,7-dichloro-4-hydroxy-N-(3-{4-[2-(trifluoromethoxy)ethoxy]-1H-pyrazol-1-yl}bicyclo[1.1.1]pentan-1-yl)-3,4-dihydro-2H-1-benzopyran-2-carboxamide], the concentration for a half-maximal effect (EC50) is under 10 nM.

The EC50 is the concentration giving half of the maximal effect.

(Values after patent publication US20250145594A1, “MODULATORS OF THE INTEGRATED STRESS PATHWAY” (Calico Life Sciences LLC, priority 2020, published 2025).)
